According to patent US10004809B2, “Precise delivery of therapeutic agents to cell mitochondria for anti-cancer therapy” (UNIVERSITY OF GEORGIA RESEARCH FOUNDATION, INC., priority 2013, dated 2018):

Experiments:
Assay type in all cases: cell-based, Human
PC3 cells [1] = test: Intracellular lactate determination; conditions: concentration not given
Source text: Cytosolic metabolism of glucose to pyruvate occurs before its entry into mitochondria for oxidative phosphorylation. However, if not metabolized through oxidative phosphorylation as found in cancer, pyruvate gets converted by lactate dehydrogenase through glycolysis to lactate. Glycolysis in the absence of oxidative phosphorylation in cancer causes rise in lactate concentration. To test the ability of MITO-DCA to switch glucose metabolism from glycolysis to oxidative phosphorylation in cancer cells, intracellular lactate levels in glycolytic PC3 cells were measured and compared the value with those observed in less glycolytic LNCaP and normal MSC cells (FIG. 5A). To understand the importance of mitochondria targeting ligand and to explore the importance of a Tris platform to increase number of DCA molecule per targeting ligand, the parent drug Na-DCA and TPP-DCA were used as controls. Treatment of PC3 cells with 50 μM of MITO-DCA for 6 h reduced the intracellular lactate levels by 58±5%. […] Pronounced lactate concentration differences were observed between […] glycolytic PC3 and healthy MSC cells (FIG. 5A). […] None of the DCA compounds has any effect on the lactate levels in MSC cells (FIG. 5A).
PC3, LNCaP, and MSC cells were seeded at a density of 1×10^6 cells/mL on each well of a 12 well plate and allowed to grow overnight at 37° C. under 5% CO2. Cells were treated with 150 μM Na-DCA, 150 μM TPP-DCA, and 50 μM MITO-DCA for 6 h at 37° C. After 6 h, the media was removed and the cells were homogenized. The lysate was added to the enzyme and substrate working reagent mixture and incubated for 30 min. Lactate concentration was measured using Bio-Tek Synergy HT microplate reader at 450 nm and comparing to a standard curve.

MSC cells = test: MTT cytotoxicity assay on normal cells; conditions: 72 h
Procedure: (§1) The cytotoxic behaviors of MITO-DCA, TPP-DCA, Na-DCA, and TPP-Tris-(OH)3 were evaluated using the MTT assay against PC3, DU145, LNCaP, and MSC cells. Cells (2000 cells/well for PC3, DU145, and MSC cells; 5000 cells/well for LNCaP) were seeded on a 96-well plate in 100 μL of desired medium and incubated for 24 h. The cells were treated with different DCA compounds and TPP-Tris-(OH)3 at varying concentrations and incubated for 72 h at 37° C. The cells were then treated with 20 μL of MTT (5 mg/mL in PBS) for 5 h. The medium was removed, the cells were lysed with 100 μL of DMSO, and the absorbance of the purple tormazan was recorded at 550 nm using a Bio-Tek Synergy HT microplate reader. Each well was performed in triplicate. All experiments were repeated three times. Cytotoxicity was expressed as mean percentage increase relative to the unexposed control±SD. Control values were set at 0% cytotoxicity or 100% cell viability. Cytotoxicity data (where appropriate) was fitted to a sigmoidal curve and a three parameters logistic model used to calculate the IC50, which is the concentration of chemotherapeutics causing 50% inhibition in comparison to untreated controls. The mean IC50 is the concentration of agent that reduces cell growth by 50% under the experimental conditions and is the average from at least three independent measurements that were reproducible and statistically significant. The IC50 values were reported at ±99% confidence intervals. This analysis was performed with GraphPad Prism (San Diego, U.S.A).

DU145 cells = test: MTT cytotoxicity assay; conditions: DU145 cells, MTT
Procedure: as §1

PC3 cells [2] = test: MTT cytotoxicity assay; conditions: PC3 cells, MTT
Procedure: as §1

LNCaP cells = test: MTT cytotoxicity assay; conditions: LNCaP cells, MTT
Procedure: as §1

O=C(CCCCC[P+](c1ccccc1)(c1ccccc1)c1ccccc1)NC(CO)(CO)CO.[Br-] [TPP-Tris-(OH)3]
Effect on intracellular lactate levels (PC3 cells [1]): did not show any effect
Toxicity in normal MSC cells (MSC cells): did not show any toxic effects
Toxic effects (cytotoxicity profile) (DU145 cells): did not show any toxic effects
Toxic effects (cytotoxicity profile) (PC3 cells [2]): did not show any toxic effects
Toxic effects (cytotoxicity profile) (LNCaP cells): did not show any toxic effects
